T/C data for 21 molecules are collected here from PubChem BioAssay AID256 (DTP/NCI, 2004).

Several values for one entry are separate records, joined by “and”; a condition that tells them apart may be missing. Identical values can stand only once. Inconclusive results and toxic doses are left out.

For the assay, the system named is CD2F1 mice, L1210 leukemia ip, survival T/C. Description: NCI In Vivo Anticancer Drug Screen. Data for tumor model L1210 Leukemia (intraperitoneal) in CD2F1 (CDF1) mice. Particulars: higher = longer survival. In outline: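 In this screen, transplantable tumors were grown in mice given either the compound or its vehicle. Results were expressed as the treated measurement relative to the control measurement.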

Setting [1] is: endpoint: mean survival time, dose: 100.0 mg/kg/injection, schedule: Q01DX001 (ip), vehicle: saline.
The mark [2] stands for this setting: endpoint: mean survival time, dose: 100.0 mg/kg/injection, schedule: Q04DX003 (ip), vehicle: saline.
[3] abbreviates: endpoint: mean survival time, dose: 200.0 mg/kg/injection, schedule: Q01DX001 (ip), vehicle: saline.
The mark [4] stands for this setting: endpoint: mean survival time, dose: 200.0 mg/kg/injection, schedule: Q04DX003 (ip), vehicle: saline.
Setting [5] is: endpoint: mean survival time, dose: 400.0 mg/kg/injection, schedule: Q01DX001 (ip), vehicle: saline.
The mark [6] stands for this setting: endpoint: mean survival time, dose: 400.0 mg/kg/injection, schedule: Q04DX003 (ip), vehicle: saline.
The mark [7] stands for this setting: endpoint: mean survival time, dose: 100.0 mg/kg/injection, schedule: Q01DX001 (ip), vehicle: saline with Tween-80.
[8] abbreviates: endpoint: mean survival time, dose: 200.0 mg/kg/injection, schedule: Q01DX001 (ip), vehicle: saline with Tween-80.
Setting [9] is: endpoint: mean survival time, dose: 400.0 mg/kg/injection, schedule: Q01DX001 (ip), vehicle: saline with Tween-80.
Setting [10] is: endpoint: mean survival time, dose: 50.0 mg/kg/injection, schedule: Q01DX009 (ip), vehicle: other.
The mark [11] stands for this setting: endpoint: mean survival time, dose: 100.0 mg/kg/injection, schedule: Q01DX009 (ip), vehicle: other.
Where [12] appears, read: endpoint: mean survival time, dose: 100.0 mg/kg/injection, schedule: Q04DX003 (ip), vehicle: saline with Tween-80.
Setting [13] is: endpoint: mean survival time, dose: 200.0 mg/kg/injection, schedule: Q01DX009 (ip), vehicle: other.
Setting [14] is: endpoint: mean survival time, dose: 25.0 mg/kg/injection, schedule: Q04DX003 (ip), vehicle: saline with Tween-80.
Where [15] appears, read: endpoint: mean survival time, dose: 50.0 mg/kg/injection, schedule: Q04DX003 (ip), vehicle: saline with Tween-80.

Consider `NC(=O)CCC(NC(=O)c1cnc2ccccc2n1)C(=O)O` (stereo not given), for which the T/C is, setting by setting: under setting [1], 97 % of control; under setting [2], 105 % of control; under setting [3], 97 % of control; under setting [4], 100 % of control; under setting [5], 95 % of control; under setting [6], 102 % of control.
`CC[NH-].CC[NH-].[Cl][Pt+2][Cl]`: the T/C (endpoint: mean survival time, dose: 2.5 mg/kg/injection, schedule: Q04DX003 (ip), vehicle: water) was 115 % of control; the T/C (endpoint: mean survival time, dose: 5.0 mg/kg/injection, schedule: Q04DX003 (ip), vehicle: water) was 116 % of control; the T/C (endpoint: mean survival time, dose: 10.0 mg/kg/injection, schedule: Q04DX003 (ip), vehicle: water) is 112 % of control.
On to `CC(=O)Nc1ccc(C(=O)C=O)cc1`, for which the T/C is, setting by setting: (endpoint: mean survival time, dose: 6.25 mg/kg/injection, schedule: Q01DX009 (ip), vehicle: saline with Tween-80) 103 % of control; (endpoint: mean survival time, dose: 12.5 mg/kg/injection, schedule: Q01DX009 (ip), vehicle: saline with Tween-80) 110 % of control; (endpoint: mean survival time, dose: 25.0 mg/kg/injection, schedule: Q01DX009 (ip), vehicle: saline with Tween-80) 107 % of control; (endpoint: mean survival time, dose: 50.0 mg/kg/injection, schedule: Q01DX009 (ip), vehicle: saline with Tween-80) 113 % of control; (endpoint: mean survival time, dose: 100.0 mg/kg/injection, schedule: Q01DX009 (ip), vehicle: saline with Tween-80) 110 % of control; (endpoint: mean survival time, dose: 200.0 mg/kg/injection, schedule: Q01DX009 (ip), vehicle: saline with Tween-80) 103 % of control.
Consider `CCCCC=C(C1CCCC1C)C1CCCC1C` (stereo not given), for which the T/C is 97 % of control under setting [7], 102 % of control under setting [8] and 94 % of control under setting [9].
For `O=C(/C=C\c1ccnc2ccccc12)c1ccc([N+](=O)[O-])cc1`, the T/C is, setting by setting: (endpoint: mean survival time, dose: 12.5 mg/kg/injection, schedule: Q01DX009 (ip), vehicle: other) 94 % of control; (endpoint: mean survival time, dose: 25.0 mg/kg/injection, schedule: Q01DX009 (ip), vehicle: other) 89 % of control; under setting [10], 89 % of control; under setting [11], 92 % of control; under setting [12], 97 % of control; under setting [13], 97 % of control. In addition, the T/C was 94 % of control (endpoint: mean survival time, dose: 200.0 mg/kg/injection, schedule: Q04DX003 (ip), vehicle: saline with Tween-80) and 91 % of control (endpoint: mean survival time, dose: 400.0 mg/kg/injection, schedule: Q04DX003 (ip), vehicle: saline with Tween-80).
Turning to `CO[C@@]12[C@H](COC(N)=O)C3=C(C(=O)C(C)=C(NCCO)C3=O)N1C[C@@H]1N[C@@H]12`, the T/C (endpoint: mean survival time, dose: 10.2 mg/kg/injection, schedule: Q01DX001 (ip), vehicle: saline) is 96 % of control; the T/C (endpoint: mean survival time, dose: 15.5 mg/kg/injection, schedule: Q01DX001 (ip), vehicle: saline) is 96 % of control; the T/C (endpoint: mean survival time, dose: 23.2 mg/kg/injection, schedule: Q01DX001 (ip), vehicle: saline) is 112 % of control.
With `CC(C)=CCC/C(C)=C\CC1=C(O)c2ccccc2C(=O)C1=O`, the T/C under setting [10] is 96 % of control, the T/C under setting [11] is 94 % of control and the T/C under setting [13] was 95 % of control.
Turning to `CCOC(=O)C([NH-])CC[NH-].[Cl][Pt+2][Cl]` (stereo not given), the T/C by setting is: (endpoint: mean survival time, dose: 12.5 mg/kg/injection, schedule: Q04DX003 (ip), vehicle: saline with Tween-80) 182 % of control; under setting [14], 210 % of control; under setting [15], 93 % of control.
As for `CCCCN=C(Cl)C(Cl)(c1ccccc1)c1ccccc1`, the T/C is, setting by setting: (endpoint: mean survival time, dose: 100.0 mg/kg/injection, schedule: Q04DX002 (ip), vehicle: saline) 98 % of control; (endpoint: mean survival time, dose: 200.0 mg/kg/injection, schedule: Q04DX002 (ip), vehicle: saline) 103 % of control; (endpoint: mean survival time, dose: 400.0 mg/kg/injection, schedule: Q04DX002 (ip), vehicle: saline) 95 % of control.
Take `CNC(=O)OCc1c(COC(=O)NC)c(C)n(-c2ccc(OC)cc2)c1C`: the T/C by setting is: (endpoint: mean survival time, dose: 3.12 mg/kg/injection, schedule: Q01DX009 (ip), vehicle: Klucel (hydroxypropylcellulose) (HPC)) 101 % of control and 106 % of control; (endpoint: mean survival time, dose: 6.25 mg/kg/injection, schedule: Q01DX009 (ip), vehicle: Klucel (hydroxypropylcellulose) (HPC)) 101 % of control and 106 % of control; (endpoint: mean survival time, dose: 12.5 mg/kg/injection, schedule: Q01DX009 (ip), vehicle: Klucel (hydroxypropylcellulose) (HPC)) 113 % of control and 102 % of control; (endpoint: mean survival time, dose: 25.0 mg/kg/injection, schedule: Q01DX009 (ip), vehicle: Klucel (hydroxypropylcellulose) (HPC)) 121 % of control and 98 % of control; (endpoint: mean survival time, dose: 50.0 mg/kg/injection, schedule: Q01DX009 (ip), vehicle: Klucel (hydroxypropylcellulose) (HPC)) 116 % of control and 121 % of control; (endpoint: mean survival time, dose: 100.0 mg/kg/injection, schedule: Q01DX009 (ip), vehicle: Klucel (hydroxypropylcellulose) (HPC)) 87 % of control.
For `OC1C=CC(O)C1` (stereo not given), the T/C (endpoint: mean survival time, dose: 75.0 mg/kg/injection, schedule: Q01DX001 (ip), vehicle: saline) is 97 % of control and the T/C (endpoint: mean survival time, dose: 150.0 mg/kg/injection, schedule: Q01DX001 (ip), vehicle: saline) was 101 % of control.
In the case of `COC(=O)CC1(C(=O)OC)Nc2cc(Cl)c(Cl)cc2S(=O)(=O)N1O` (stereo not given), the T/C was 106 % of control under setting [7], 94 % of control under setting [8] and 94 % of control under setting [9].
Turning to `CN1C(=O)/C(=C/c2cccs2)SC1=S`, the T/C was 95 % of control under setting [1], 98 % of control under setting [3] and 103 % of control under setting [5].
For the molecule `CCOC(=O)C(C#N)C(C(C)=O)C(=O)OCC` (stereo not given), the T/C runs as follows: under setting [14], 103 % of control; under setting [15], 98 % of control; under setting [12], 97 % of control.
Take `O=C(O)CC1(Br)C(=O)Nc2ccccc21` (stereo not given): the T/C was 98 % of control (endpoint: mean survival time, dose: 100.0 mg/kg/injection, schedule: Q04DX003 (ip), vehicle: Klucel (hydroxypropylcellulose) (HPC)); 102 % of control (endpoint: mean survival time, dose: 200.0 mg/kg/injection, schedule: Q04DX003 (ip), vehicle: Klucel (hydroxypropylcellulose) (HPC)); 98 % of control (endpoint: mean survival time, dose: 400.0 mg/kg/injection, schedule: Q04DX003 (ip), vehicle: Klucel (hydroxypropylcellulose) (HPC)).
Regarding `CC(C)([NH-])C[NH-].O=C(O)CC(=O)O.[Pt+2]`, the T/C (endpoint: median survival time, dose: 20.0 mg/kg/injection, schedule: Q04DX003 (ip), vehicle: distilled water + Tween-80) is 104 % of control.
`COc1cccc(C(=O)NC[n+]2ccccc2)c1`: the T/C under setting [2] was 110 % of control.
As for `O=C(O)C1CCCC(C(=O)O)[N-]1.O=C(O)C1CCCC(C(=O)O)[N-]1.[Cr+2]` (stereo not given), the T/C runs as follows: under setting [2], 104 % of control; under setting [4], 101 % of control; under setting [6], 104 % of control.
Take `O=S(=O)(O)c1cncc(S(=O)(=O)O)n1`: the T/C (endpoint: mean survival time, dose: 100.0 mg/kg/injection, schedule: Q01DX009 (ip), vehicle: saline) is 90 % of control; the T/C under setting [2] was 100 % of control; the T/C (endpoint: mean survival time, dose: 200.0 mg/kg/injection, schedule: Q01DX009 (ip), vehicle: saline) is 97 % of control; the T/C under setting [4] is 98 % of control; the T/C (endpoint: mean survival time, dose: 400.0 mg/kg/injection, schedule: Q01DX009 (ip), vehicle: saline) is 100 % of control; the T/C under setting [6] is 93 % of control.
In the case of `CC1=CC=CNC1(N)Br` (stereo not given), the T/C reads like this: under setting [1], 100 % of control; under setting [3], 104 % of control; under setting [5], 100 % of control.
In the case of `O=C1CCCC2c3ccccc3NC12` (stereo not given), the T/C runs as follows: under setting [1], 98 % of control; under setting [3], 102 % of control; under setting [5], 101 % of control.
